The values below come from US20230241226A1, “COMPOUNDS FOR TARGETED DEGRADATION OF CARRIER PROTEINS AND USES THEREOF” (CeMM - Forschungszentrum für Molekulare Medizin GmbH, priority 2019, published 2023).

Each structure is given as a SMILES string.

Holding throughout (format): cell-based
Assay [1] has as its target T1, Strep/HA SLC9A4 (Homo sapiens, UniProt Q6AI14).
T1 construct: expressed in transfected cells; host or cells: HAP1 (lentiviral, pRRL Strep-HA; cDNA synthesized by Genescript)
The assay is described as follows: Selectivity across SLC9 family: degradation of exogenous Strep/HA SLC9A4. The settings on record: HAP1; 250 or 750 nM; 16 hours. As to the method: (§1) (E) Selectivity of d9A1-2 was tested across HAP1 cell lines expressing Strep/HASLC9A1, 9A4, 9A5, 9A8, 9A2, 9B2, 9A6, 9A9, and 9A3. Cells were treated with varying concentrations of d9A1-2 for 16 hours, after which degradation of the exogenous SLCs was monitored.
(§2) SLC1A5, SLC2A1, SLC2A3, SLC16A1, SLC38A1, SLC38A2 were obtained as gateway-compatible pENTR/pDONR vectors from the Harvard PlasmID Repository. SLC39A7 was obtained from Dharmacon, GE Healthcare. The following vectors were synthesized by Genescript: SLC4A4, SLC7A3, SLC38A9, SLC25A1, SLC9A1, SLC9A2, SLC9A3, SLC9A4, SLC9A5, SLC9A6, SLC9A7, SLC9A8, and SLC9B2. SLC30A9, SLC33A1, SLC35B2, SLC25A26, and MTCH2 were a gift from the RESOLUTE consortium. cDNAs were transferred into gateway-compatible lentiviral expression vectors: pLX305 dTAG vectors (Addgene #91797/8) or pRRL Strep-HA (described previously43, EF1a promotor driven expression) using LR recombination (ThermoFisher Scientific). […]
(§3) For immunoblotting, whole cell extracts were prepared using RIPA lysis buffer (25 mM Tris/HCl pH 7.6, 150 mM NaCl, 1% NP-40, 1% sodium deoxycholate, 0.1% SDS, EDTA-free protease inhibitor (Roche) and phosphatase inhibitors 2+3 (Sigma- Aldrich)). […] Protein extracts were quantified and normalized using the BCA assay (Thermo Scientific). […]

In assay [2] the target is T2, Strep/HA SLC9A3 (Homo sapiens, UniProt P48764).
T2 construct: expressed in transfected cells; host or cells: HAP1 (lentiviral, pRRL Strep-HA; cDNA synthesized by Genescript)
In words: Selectivity across SLC9 family: degradation of exogenous Strep/HA SLC9A3. The settings on record: HAP1; 250 or 750 nM; 16 hours. As to the method: as §1, §2, §3

The target in assay [3] is T3, Strep/HA SLC9A5 (Homo sapiens, UniProt Q14940).
T3 construct: expressed in transfected cells; host or cells: HAP1 (lentiviral, pRRL Strep-HA; cDNA synthesized by Genescript)
In words: Selectivity across SLC9 family: degradation of exogenous Strep/HA SLC9A5. The settings on record: HAP1; 250 or 750 nM; 16 hours. As for the experimental part: as §1, §2, §3

In assay [4] the target is T4, Strep/HA SLC9A8 (Homo sapiens, UniProt Q9Y2E8).
T4 construct: expressed in transfected cells; host or cells: HAP1 (lentiviral, pRRL Strep-HA; cDNA synthesized by Genescript)
The assay is described as follows: Selectivity across SLC9 family: degradation of exogenous Strep/HA SLC9A8. The settings on record: HAP1; 250 or 750 nM; 16 hours. As for the experimental part: as §1, §2, §3

Assay [5] concerns the target T5, Strep/HA SLC9B2 (Homo sapiens, UniProt Q86UD5).
T5 construct: expressed in transfected cells; host or cells: HAP1 (lentiviral, pRRL Strep-HA; cDNA synthesized by Genescript)
In words: Selectivity across SLC9 family: degradation of exogenous Strep/HA SLC9B2. To be noted: HAP1; 250 or 750 nM; 16 hours. As for the experimental part:
as §1, §2, §3

Assay [6] has as its target T6, dTAG-HA SLC2A1 (Homo sapiens, UniProt P11166+Q96SW2).
T6 construct: expressed in transfected cells
In words: Targeted degradation of dTAG-tagged SLC2A1 (western blot). The settings on record: HAP1, 0.5 µM, 24, 48 or 72 hours. As to the method: (C)HAP1 cells expressing dTAG-HA SLC1A5, 2A3, 30A9, 35B2, MTCH2, and 33A1 were treated for 24 hours with 0.5 µM of dTAG7 or dTAG13, as indicated. HAP1 cells expressing dTAG-HA SLC2A1 and 16A1 were treated for 24 hrs with 0.5 µM of dTAG7. HAP1 cell lines expressing dTAG-HA SLC39A7, dTAG-HA SLC4A4, and SLC7A3-dTAG-HA were treated for 48 hrs with 0.5 µM of dTAG13.
SLC1A5, SLC2A1, SLC2A3, SLC16A1, SLC38A1, SLC38A2 were obtained as gateway-compatible pENTR/pDONR vectors from the Harvard PlasmID Repository. SLC39A7 was obtained from Dharmacon, GE Healthcare. The following vectors were synthesized by Genescript: SLC4A4, SLC7A3, SLC38A9, SLC25A1, SLC9A1, SLC9A2, SLC9A3, SLC9A4, SLC9A5, SLC9A6, SLC9A7, SLC9A8, and SLC9B2. […]
as §3
SLCs were ectopically expressed as fusions to a mutated FKBP domain, also known as the dTAG system. […]

The target of assay [7] is T7, dTAG-HA SLC38A1 (Homo sapiens, UniProt Q96SW2+Q9H2H9).
T7 construct: expressed in transfected cells
In words: Targeted degradation of dTAG-tagged SLC38A1 (western blot). As for the experimental part: (A) HAP1 cells expressing dTAG-HA SLC38A9, 38A2, or 38A1 were treated with 0.5 µM dTAG13 for 16, 24 or 48 hours.
as §2, §3
SLCs were ectopically expressed as fusions to a mutated FKBP domain, also known as the dTAG system. […] Each of the tested SLCs was stably expressed in HAP1 cells, and subcellular localization was assessed by immunofluorescence microscopy (FIG. 1B). […]
(In general: A western blot detects proteins with antibodies after separation by electrophoresis.)

T7 sequence (Q16531 whole entry): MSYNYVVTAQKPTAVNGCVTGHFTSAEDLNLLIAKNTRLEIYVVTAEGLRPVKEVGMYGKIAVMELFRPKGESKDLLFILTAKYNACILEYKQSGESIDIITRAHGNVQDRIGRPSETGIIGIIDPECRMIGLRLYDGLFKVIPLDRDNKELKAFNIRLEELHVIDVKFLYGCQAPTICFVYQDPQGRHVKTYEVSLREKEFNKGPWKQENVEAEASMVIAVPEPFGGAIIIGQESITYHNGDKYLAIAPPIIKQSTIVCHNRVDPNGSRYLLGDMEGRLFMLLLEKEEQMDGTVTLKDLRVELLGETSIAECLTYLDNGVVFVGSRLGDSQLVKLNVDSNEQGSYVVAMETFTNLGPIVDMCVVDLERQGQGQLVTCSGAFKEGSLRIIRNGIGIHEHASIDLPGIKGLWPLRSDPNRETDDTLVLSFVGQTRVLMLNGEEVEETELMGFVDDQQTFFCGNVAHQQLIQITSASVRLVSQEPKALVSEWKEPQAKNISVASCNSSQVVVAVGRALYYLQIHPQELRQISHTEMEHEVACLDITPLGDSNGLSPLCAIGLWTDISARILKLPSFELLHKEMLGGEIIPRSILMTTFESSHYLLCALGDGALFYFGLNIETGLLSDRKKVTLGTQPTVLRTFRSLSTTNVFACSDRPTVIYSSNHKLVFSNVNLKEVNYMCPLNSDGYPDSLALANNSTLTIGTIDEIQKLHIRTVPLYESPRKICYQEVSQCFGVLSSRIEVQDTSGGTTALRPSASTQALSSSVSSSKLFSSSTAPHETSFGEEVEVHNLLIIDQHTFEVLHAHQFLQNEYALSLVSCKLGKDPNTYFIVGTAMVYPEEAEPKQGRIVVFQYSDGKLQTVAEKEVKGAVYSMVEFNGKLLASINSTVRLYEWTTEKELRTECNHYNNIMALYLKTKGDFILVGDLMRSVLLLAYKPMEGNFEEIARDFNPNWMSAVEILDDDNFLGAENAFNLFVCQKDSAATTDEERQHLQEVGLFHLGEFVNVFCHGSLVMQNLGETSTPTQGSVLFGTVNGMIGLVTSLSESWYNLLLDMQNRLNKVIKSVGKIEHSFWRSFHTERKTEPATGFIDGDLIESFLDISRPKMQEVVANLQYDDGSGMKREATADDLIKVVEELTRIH
T7 sequence (Q9H2H9 other isoform, or with tags, fused parts or gaps): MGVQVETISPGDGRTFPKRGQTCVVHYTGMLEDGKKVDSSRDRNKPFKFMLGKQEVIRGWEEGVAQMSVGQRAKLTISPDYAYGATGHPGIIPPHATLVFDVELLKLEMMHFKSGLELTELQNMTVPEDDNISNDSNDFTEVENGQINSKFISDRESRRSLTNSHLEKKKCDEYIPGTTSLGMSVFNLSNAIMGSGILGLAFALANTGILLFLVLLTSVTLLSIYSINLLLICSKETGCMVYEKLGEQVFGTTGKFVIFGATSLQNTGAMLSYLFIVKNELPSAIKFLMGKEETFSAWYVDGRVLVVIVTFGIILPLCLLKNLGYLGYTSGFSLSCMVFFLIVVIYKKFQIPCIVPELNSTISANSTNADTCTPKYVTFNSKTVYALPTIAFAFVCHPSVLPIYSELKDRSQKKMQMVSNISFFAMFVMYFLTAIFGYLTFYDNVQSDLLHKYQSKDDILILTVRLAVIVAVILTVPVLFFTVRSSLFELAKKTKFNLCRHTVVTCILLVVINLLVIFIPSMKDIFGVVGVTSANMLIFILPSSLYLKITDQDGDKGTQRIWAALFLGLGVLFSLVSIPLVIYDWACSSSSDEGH
T7 sequence (Q96SW2 whole entry): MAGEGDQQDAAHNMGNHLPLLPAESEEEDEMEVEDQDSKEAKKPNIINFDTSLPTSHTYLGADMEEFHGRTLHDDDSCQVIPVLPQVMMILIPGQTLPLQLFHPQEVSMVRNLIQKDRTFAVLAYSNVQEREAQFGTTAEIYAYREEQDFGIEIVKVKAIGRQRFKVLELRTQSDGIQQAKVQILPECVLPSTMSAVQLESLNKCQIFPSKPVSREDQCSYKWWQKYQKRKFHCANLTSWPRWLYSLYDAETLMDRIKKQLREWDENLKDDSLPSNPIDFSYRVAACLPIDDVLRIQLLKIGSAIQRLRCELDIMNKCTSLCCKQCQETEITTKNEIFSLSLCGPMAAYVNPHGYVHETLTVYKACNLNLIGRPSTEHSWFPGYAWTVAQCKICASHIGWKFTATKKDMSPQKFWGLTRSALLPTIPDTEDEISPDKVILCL
T6 sequence (P11166 with tags, fused parts or gaps): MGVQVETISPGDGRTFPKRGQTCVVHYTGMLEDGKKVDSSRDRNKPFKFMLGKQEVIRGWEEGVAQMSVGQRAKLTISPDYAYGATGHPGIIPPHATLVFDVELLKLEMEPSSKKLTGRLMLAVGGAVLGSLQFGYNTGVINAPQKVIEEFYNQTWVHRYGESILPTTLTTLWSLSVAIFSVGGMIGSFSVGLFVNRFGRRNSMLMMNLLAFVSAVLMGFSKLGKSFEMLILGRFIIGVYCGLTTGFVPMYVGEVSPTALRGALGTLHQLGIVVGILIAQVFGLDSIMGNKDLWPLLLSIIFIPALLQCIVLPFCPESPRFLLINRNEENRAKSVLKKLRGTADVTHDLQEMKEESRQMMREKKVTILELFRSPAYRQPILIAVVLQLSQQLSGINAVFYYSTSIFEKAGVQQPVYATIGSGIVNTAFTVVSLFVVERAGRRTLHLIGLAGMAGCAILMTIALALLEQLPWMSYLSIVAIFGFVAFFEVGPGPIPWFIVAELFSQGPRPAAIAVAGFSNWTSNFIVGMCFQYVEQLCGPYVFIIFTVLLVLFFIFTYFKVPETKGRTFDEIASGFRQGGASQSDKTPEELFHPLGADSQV
T6 sequence (Q96SW2 whole entry): as the sequence (Q96SW2 whole entry) above
T6 sequence (Q16531 whole entry partner): as the sequence (Q16531 whole entry) above
T2 sequence (P48764 26-834): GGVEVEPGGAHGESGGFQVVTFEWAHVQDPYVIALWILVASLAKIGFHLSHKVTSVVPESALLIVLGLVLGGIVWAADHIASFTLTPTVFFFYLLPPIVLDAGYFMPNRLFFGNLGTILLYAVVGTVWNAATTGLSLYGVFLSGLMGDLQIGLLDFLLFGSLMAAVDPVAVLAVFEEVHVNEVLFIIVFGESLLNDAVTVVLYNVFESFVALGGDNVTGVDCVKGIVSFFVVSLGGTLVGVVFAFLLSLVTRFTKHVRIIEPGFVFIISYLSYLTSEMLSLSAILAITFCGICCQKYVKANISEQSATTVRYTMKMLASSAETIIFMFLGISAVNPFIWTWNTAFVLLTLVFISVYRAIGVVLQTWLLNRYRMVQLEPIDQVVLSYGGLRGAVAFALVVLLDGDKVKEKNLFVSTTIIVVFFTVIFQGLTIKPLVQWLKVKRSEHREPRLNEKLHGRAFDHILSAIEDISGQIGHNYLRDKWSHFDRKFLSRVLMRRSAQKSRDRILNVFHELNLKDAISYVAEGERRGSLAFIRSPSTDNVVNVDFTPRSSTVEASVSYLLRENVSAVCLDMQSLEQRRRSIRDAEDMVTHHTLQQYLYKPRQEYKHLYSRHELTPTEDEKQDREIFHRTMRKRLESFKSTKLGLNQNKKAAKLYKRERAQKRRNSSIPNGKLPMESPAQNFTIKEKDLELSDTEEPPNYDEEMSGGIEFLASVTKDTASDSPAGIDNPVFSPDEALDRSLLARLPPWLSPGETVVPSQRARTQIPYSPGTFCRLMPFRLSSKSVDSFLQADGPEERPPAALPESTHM
T3 sequence (Q14940 whole entry): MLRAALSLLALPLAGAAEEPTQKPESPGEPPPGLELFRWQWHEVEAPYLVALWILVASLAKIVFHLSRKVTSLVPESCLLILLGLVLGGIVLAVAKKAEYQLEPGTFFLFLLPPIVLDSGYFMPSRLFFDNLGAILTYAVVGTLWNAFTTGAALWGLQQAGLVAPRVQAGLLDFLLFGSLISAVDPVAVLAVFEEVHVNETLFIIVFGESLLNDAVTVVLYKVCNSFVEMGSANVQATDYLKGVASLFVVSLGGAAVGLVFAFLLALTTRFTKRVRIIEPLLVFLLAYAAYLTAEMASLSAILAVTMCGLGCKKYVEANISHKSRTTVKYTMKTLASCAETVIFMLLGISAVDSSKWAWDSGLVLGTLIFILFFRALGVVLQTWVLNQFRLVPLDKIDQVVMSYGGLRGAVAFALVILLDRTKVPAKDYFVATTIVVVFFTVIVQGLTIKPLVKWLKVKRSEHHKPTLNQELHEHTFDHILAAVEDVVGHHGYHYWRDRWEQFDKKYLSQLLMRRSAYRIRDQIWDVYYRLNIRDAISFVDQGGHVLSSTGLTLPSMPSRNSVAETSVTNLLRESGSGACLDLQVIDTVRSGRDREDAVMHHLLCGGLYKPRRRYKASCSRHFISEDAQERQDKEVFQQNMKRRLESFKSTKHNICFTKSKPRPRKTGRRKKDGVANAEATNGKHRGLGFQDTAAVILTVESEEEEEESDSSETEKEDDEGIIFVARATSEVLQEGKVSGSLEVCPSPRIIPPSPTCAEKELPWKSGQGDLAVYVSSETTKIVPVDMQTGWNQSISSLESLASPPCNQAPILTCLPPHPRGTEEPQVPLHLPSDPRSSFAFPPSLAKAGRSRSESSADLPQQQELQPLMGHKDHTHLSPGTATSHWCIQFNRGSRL

Regarding `Cc1cc(-c2ccc(C(=O)NCCOCCOCCOCCOCCNc3cccc4c3C(=O)N(C3CCC(=O)NC3=O)C4=O)cc2N2CCC(c3[nH]cnc3C)CC2)ccc1F` (centres unmarked) [d9A1-2], the “degradation of exogenous SLC9A4” value in assay [1] is “prompted degradation”. The “abundance of exogenous SLC9A3” value in assay [2] was “not significantly affected”. Moreover, the “abundance of exogenous SLC9A5” value in assay [3] is “not significantly affected”. Also, the “abundance of exogenous SLC9A8” value in assay [4] is “not significantly affected”. The “abundance of exogenous SLC9B2” value in assay [5] is reported as “not significantly affected”.
`CC[C@H](C(=O)N1CCCC[C@H]1C(=O)O[C@H](CCc1ccc(OC)c(OC)c1)c1ccccc1OCC(=O)NCCCOCCOCCOCCCNC(=O)COc1cccc2c1C(=O)N(C1CCC(=O)NC1=O)C2=O)c1cc(OC)c(OC)c(OC)c1` (some centres unmarked) [dTAG7]: the “reversibility of degradation of the target SLC” value in assay [6] is “reversible degradation”.
`CC[C@H](C(=O)N1CCCC[C@H]1C(=O)O[C@H](CCc1ccc(OC)c(OC)c1)c1ccccc1OCC(=O)NCCCCCCOc1cccc2c1C(=O)N(C1CCC(=O)NC1=O)C2=O)c1cc(OC)c(OC)c(OC)c1` (some centres unmarked) [dTAG13]: in assay [7] (HAP1, dTAG-HA SLC38A1, 0.5 µM, 16, 24 or 48 hours), the “degradation of the target SLC” value is “Near-complete degradation”. The “degradation of dTAG-HA SLC38A1 (antibodies against HA-tag and total protein)” value in assay [7] (HAP1 or 293T, PNGase de-glycosylated extracts) is listed as “completely degraded”.
